{"source": "patent US11319305B2", "about": "“Pyrimidine sulfamide derivative and preparation method and medical application thereof” (SHIJIAZHUANG SAGACITY NEW DRUG DEVELOPMENT CO., LTD., priority 2017, dated 2022)", "target": "T1, Human Pregnane X Receptor (PXR) (Homo sapiens, UniProt O75469)", "T1 construct": "host or cells: DPX2 cells", "T1 sequence (O75469 1-434)": "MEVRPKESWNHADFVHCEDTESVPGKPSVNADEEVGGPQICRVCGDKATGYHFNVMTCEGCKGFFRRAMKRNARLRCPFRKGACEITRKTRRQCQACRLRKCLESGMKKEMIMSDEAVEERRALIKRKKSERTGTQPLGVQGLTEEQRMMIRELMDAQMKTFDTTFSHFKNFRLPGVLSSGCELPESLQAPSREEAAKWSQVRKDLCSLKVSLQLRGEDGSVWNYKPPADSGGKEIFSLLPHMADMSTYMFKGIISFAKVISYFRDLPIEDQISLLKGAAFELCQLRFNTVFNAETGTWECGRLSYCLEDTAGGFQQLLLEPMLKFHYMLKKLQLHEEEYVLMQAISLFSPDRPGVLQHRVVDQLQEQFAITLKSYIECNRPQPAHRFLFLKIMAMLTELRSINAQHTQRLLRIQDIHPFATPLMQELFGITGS", "experiment": "Human pregnane X receptor (PXR) assay, induction of PXR-mediated CYP3A expression in DPX2 cells", "type": "cell-based", "method": "Experimental Embodiment 3: Human Pregnane X Receptor (PXR) Assay\nThe effect of the compounds on the induction of PXR-mediated CYP3A expression was evaluated.\n1. DPX2 cells were thawn under sterile conditions.\n2. DPX2 cell solution was distributed in 96-well plate (100 μL/well), and the plate was placed in a 5% CO2/37° C. incubator overnight.\n3. Quantitative feeding medium was thawn in a 37° C. water bath. Positive control rifampin was thawn at room temperature. A series of test compounds and positive control dilutions were prepared in quantitative feeding medium. The cells were carefully aspirated from each wells without disturbing the cells during aspiration and the medium was discarded. 100 μL of each test compound concentration was transferred to pre-labeled wells. The operation of the positive control group and the blank group were the same. The plate was placed back into the incubator for 24 hours exposure.\n(1) 7 μL of Luciferin-IPA was added to […] feeding medium, the mixture was mixed by inverting, and poured into a Luciferin-IPA reagent tank.\n(2) The 96-well plate was taken out from the incubator, and the media was carefully aspirated from each wells. 50 μL of the Luciferin-IPA reagent was added to each wells, and the cell plate was placed back into the incubator for 60 minutes.\n(3) During incubation, the P450-Glo buffer was poured into the Luciferin detection reagent, and the mixture was mixed by inverting.\n(4) The 96-well plate was taken out from the incubator, and 40 μL of solution from each well was transferred into the corresponding white 96-well plate, and the corresponding position of each wells was consistent with the original cell plate. […]\n(8) After incubation with Luciferin detection reagent for 20 minutes, a photometer (set 1-5 seconds. Readout Time) was used to measure the luminescence of each wells of the white 96-well plate. […]\n(10) After incubating for 60 minutes at 37° C., the original 96-well plate was taken out of the incubator. The reader was set to the fluorescence mode, the excitation wavelength was set to 380-400 nm, the emission wavelength was set to 505 nm, and the fluorescence intensity of each wells was measured.\n(11) The cell plate was taken out of the enzyme reader, and 100 μL of ONE-Glo™ detection reagent was added to each wells. […]\n(12) The enzyme reader was set to 5 seconds for pre-shaking and 5 seconds for wells reading, and the fluorescence intensity in each hole was measured. […]\nThe positive control was rifampicin, six concentrations were tested in each experiment. The data was analyzed using Prism to generate a concentration-response curve and the EC50 value of the compound was calculated."}
{"compound": "COCCNS(=O)(=O)Nc1ncnc(OCCOc2ncc(Br)cn2)c1-c1ccc2c(c1)OCO2", "note": "[WX013]", "values": [{"measurement": "induction effect on PXR-mediated CYP3A expression (in words)", "result": "relatively weak induction effect"}, {"measurement": "EC50", "setting": "DPX2 cells, 24 hours exposure, ± is calculation error of simulation curve, read-out: EC50, induction effect on PXR-mediated CYP3A expression", "result": "27.6 ± 1.33", "unit": "µM"}]}
